The record followed here is patent US6579861B2, “1α-hydroxy-2-methylene-19-nor-homopregnacalciferol and its uses” (Wisconsin Alumni Research Foundation, priority 2000, dated 2003).

Entries after “also recorded” stand apart in the source; their conditions may differ.

Assay [1] deals with 24-hydroxylase (240Hase) gene promoter in LLC (kidney) cells. As to the kind of experiment: Transcriptional activity, 24-hydroxylase promoter luciferase reporter in kidney cells. To be noted: 16 h after dosing, FIG. 6, result in words. It counts as cell-based. The protocol:
(§1) Transcriptional activity was measured in two different cell lines. ROS 17/2.8 (bone) or LLC (kidney) cells were stably transfected with a 24-hydroxylase (240Hase) gene promoter upstream of a luciferase reporter gene (Arbour et al, 1998). Cells were given a range of doses. Sixteen hours after dosing the cells were harvested and luciferase activities were measured using a luminometer. The EC50 of 1α-hydroxy-2-methylene-19-nor-homopregnacalciferol is about 10 times lower in bone cells than kidney cells. […] The graphs of FIGS. 5 and 6 are representative of 4 to 5 independent experiments. In FIGS. 5 and 6, RLU means relative luciferase units.
For orientation: In a reporter assay the amount or activity of a reporter protein is the signal.

The subject of assay [2] is 24-hydroxylase (240Hase) gene promoter in ROS 17/2.8 (bone) cells. The assay is described as follows: Transcriptional activity, 24-hydroxylase promoter luciferase reporter in bone cells. It counts as cell-based. The method, then: as §1
The next assay relates to HL-60 cells. As to the kind of experiment: Differentiation of HL-60 promyelocytes into monocytes. In kind it is cell-based. The following applies: FIG. 4; result in words. The method, then:
FIG. 4 is a graph illustrating the percent HL-60 cell differentiation as a function of the concentration of 1α-hydroxy-2-methylene-19-nor-homopregnacalciferol and of 1α,25-dihydroxyvitamin D3;
The differentiation of HL-60 promyelocytic into monocytes was determined as described by Ostrem et al (J. Biol. Chem. 262, 14164-14171, 1987).

In assay [3] the test system is Sprague-Dawley rats. As to the kind of experiment: Intestinal calcium transport after chronic i.p. doses in vitamin D-deficient rats. It counts as in vivo, rat. To be noted: for Intestinal Calcium Transport (S/M): vitamin D-deficient rats, low Ca diet, average ± SE, 5 animals. The method, then:
(§2) Male, weanling Sprague-Dawley rats were placed on Diet 11 (0.47% Ca) diet+AEK for 11 days, followed by Diet 11 (0.02% Ca)+AEK for 31 days. Dosing (i.p.) began 7 days prior to sacrifice. Doses were given on a daily basis, 24 hours apart. The first 10 cm of the intestine was collected for gut transport studies and serum was collected for bone Ca mobilization analysis. The results are reported in Table 1 and illustrated in the graph of FIG. 2.

Assay [4] relates to Sprague-Dawley rats. As to the kind of experiment: Pre-dose and post-dose serum calcium (bone mobilization) after a single oral dose in rats. It counts as in vivo, rat. To be noted: average of 6 rats; for Post-Dose serum calcium: about 24 h after a single 1 nmol oral dose (gavage, vegetable oil); for Pre-Dose serum calcium: baseline, about 24 h before sacrifice, before the 1 nmol oral dose. The method, then: Weanling, male Sprague-Dawley rats (6/group) were placed on a vitamin D-deficient diet for a total of 5 weeks. During the first three weeks, the animals were fed a normal calcium diet (Diet 11+0.47% Ca+AEK supplement) and the last two weeks they were fed a low calcium diet (Diet 11+0.02% Ca+AEK supplement). Approximately 24 hours prior to sacrifice, animals were tail bled and then dosed with 1 nmol of the respective compounds. The doses were delivered orally in 100 microliters of vegetable oil by gavage. Serum was collected approximately 24 hour post-dose and it, along with the pre-dose serum, were subjected to total calcium analysis using atomic absorption spectrometry.

Assay [5] deals with Sprague-Dawley rats. As to the kind of experiment: Serum calcium (bone calcium mobilization) after chronic i.p. doses in vitamin D-deficient rats. In kind it is in vivo, rat. To be noted: for Serum Calcium (bone calcium mobilization): vitamin D-deficient rats, low Ca diet, average ± SE, 5 animals. The protocol:
as §2

In assay [6] the target is T1, vitamin D pig intestinal nuclear receptor (Sus scrofa, UniProt A3RGC1).
T1 construct: from tissue; host or cells: pig intestine (nuclear receptor preparation)
T1 sequence (A3RGC1 1-427): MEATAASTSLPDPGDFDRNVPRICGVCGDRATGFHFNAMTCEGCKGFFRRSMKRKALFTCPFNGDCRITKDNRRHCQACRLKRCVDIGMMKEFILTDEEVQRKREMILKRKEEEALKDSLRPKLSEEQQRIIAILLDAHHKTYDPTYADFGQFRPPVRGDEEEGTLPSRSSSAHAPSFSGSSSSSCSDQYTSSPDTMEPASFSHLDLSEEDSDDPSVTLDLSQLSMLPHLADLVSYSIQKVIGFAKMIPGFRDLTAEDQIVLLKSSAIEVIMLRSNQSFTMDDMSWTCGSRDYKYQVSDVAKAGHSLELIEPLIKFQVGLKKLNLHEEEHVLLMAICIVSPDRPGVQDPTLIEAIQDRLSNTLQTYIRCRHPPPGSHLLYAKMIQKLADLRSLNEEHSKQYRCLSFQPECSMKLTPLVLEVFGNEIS
As to the kind of experiment: Competitive binding of [3H]-1,25-(OH)2-D3 to the porcine intestinal vitamin D receptor. The following applies: FIG. 1, result in words. From the text:
FIG. 1 is a graph illustrating the relative activity of 1α-hydroxy-2-methylene-19-nor-homopregnacalciferol and 1α,25-dihydroxyvitamin D3 to compete for binding of [^3H]-1,25-(OH)2-D3 to the vitamin D pig intestinal nuclear receptor;
The introduction of a methylene group to the 2-position of 1α-hydroxy-19-nor-homopregnacalciferol had little or no effect on binding to the porcine intestinal vitamin D receptor, as compared to 1α,25-dihydroxyvitamin D3.
Competitive binding of the analogs to the porcine intestinal receptor was carried out by the method described by Dame et al (Biochemistry 25, 4523-4534, 1986).

[7] abbreviates: listed as 1α-hydroxy-2-methylene-19-nor-homopregnacalciferol.

As for `C=C1[C@H](O)CC(=C/C=C2\CCC[C@@]3(C)C2CCC3C(C)C)C[C@H]1O` (stereo partly drawn) [2MHP, 1α-hydroxy-2-methylene-19-nor-homopregnacalciferol], the “Transcriptional activity in kidney cells” value is listed as “greater than or equivalent to 1,25(OH)2D3” in assay [1] (setting [7]) and “has transcriptional activity in kidney cells; also recorded: significant transcriptional activity” in assay [1] (listed as 2 MHP). Further, the “EC50 in bone cells relative to kidney cells (times lower)” value in assay [2] (ROS 17/2.8 (bone) versus LLC (kidney) cells, luciferase reporter) is “about 10 times”. Moreover, in assay [2] (ROS 17/2.8 cells, 16 h after dosing, FIG. 5, result in words), the “Transcriptional activity in bone cells” value was “has transcriptional activity in bone cells; also recorded: significant transcriptional activity”. Moreover, in the assay with HL-60 cells, the “HL-60 differentiation potency compared to 1,25(OH)2D3” value is on record as “almost as potent as 1,25(OH)2D3; also recorded: only slightly less active than 1,25-(OH)2D3”. Further, the “Intestinal Calcium Transport (S/M)” value is given as 3.22 ± 0.14 S/M in the assay on Sprague-Dawley rats [3] (250 pmol/day/7 days i.p.) and 3.90 ± 0.38 S/M with Sprague-Dawley rats [3] (500 pmol/day/7 days i.p.). For the same molecule, the “Intestinal calcium transport activity compared to 1,25(OH)2D3” value with Sprague-Dawley rats [3] (Table 1 and FIG. 2, result in words) is listed as “very little activity; also recorded: significantly less than that of 1,25-(OH)2D3”. Also, the Post-Dose serum calcium in the assay with Sprague-Dawley rats [4] worked out at 4.36 mg/dL. For the same molecule, the Pre-Dose serum calcium in the assay on Sprague-Dawley rats [4] turned out to be 4.86 mg/dL. Besides, the “Serum Calcium (bone calcium mobilization)” value in the assay on Sprague-Dawley rats [5] (250 pmol/day/7 days i.p.) was determined as 4.84 ± 0.37 mg/100 ml; in the assay with Sprague-Dawley rats [5] (500 pmol/day/7 days i.p.), 3.96 ± 0.19 mg/100 ml. Besides, in the assay on Sprague-Dawley rats [5] (Table 1, FIG. 3 and FIG. 7, result in words), the “Bone calcium mobilization activity (raising serum calcium) compared to 1,25(OH)2D3” value is listed as “very little bone calcium mobilization activity; also recorded: significantly less potent than 1,25(OH)2D3”. The entries for the “Binding to the vitamin D receptor compared to 1,25-(OH)2D3” value in assay [6] (setting [7]) and in assay [6] (listed as 2 MHP) were “bound equally well to the porcine receptor as compared to the standard 1,25-(OH)2D3” and “slightly less active than 1,25(OH)2D3”, respectively.

Consider `C=C1[C@H](O)CC(=C/C=C2\CCC[C@]3(C)[C@@H]([C@@H](C)CCCC(C)(C)O)CC[C@@H]23)C[C@H]1O` [2-methylene-19-nor-20(S)-1α,25-dihydroxyvitamin D3], for which, in the assay with Sprague-Dawley rats [4], the Post-Dose serum calcium is 7.33 mg/dL and the Pre-Dose serum calcium turned out to be 4.45 mg/dL.

As for `C=C1/C(=C\C=C2/CCC[C@]3(C)[C@@H]([C@H](C)CCCC(C)(C)O)CC[C@@H]23)C[C@@H](O)C[C@@H]1O` [1,25-(OH)2D3, 1α,25-dihydroxyvitamin D3, reference compound], the results for the “Intestinal Calcium Transport (S/M)” value with Sprague-Dawley rats [3] (250 pmol/day/7 days i.p.) and with Sprague-Dawley rats [3] (500 pmol/day/7 days i.p.) were 5.21 ± 0.73 S/M and 6.85 ± 0.79 S/M, respectively. In addition, in the assay on Sprague-Dawley rats [4], the Post-Dose serum calcium turned out to be 5.42 mg/dL. In addition, the Pre-Dose serum calcium in the assay on Sprague-Dawley rats [4] turned out to be 4.51 mg/dL. Further, the “Serum Calcium (bone calcium mobilization)” value with Sprague-Dawley rats [5] (250 pmol/day/7 days i.p.) stood at 7.40 ± 0.47 mg/100 ml; with Sprague-Dawley rats [5] (500 pmol/day/7 days i.p.), 7.20 ± 0.33 mg/100 ml.
